These results are taken from patent US20260028354A1, “TETRAHYDRONAPHTHALENE DERIVATIVES AS ESTROGEN RECEPTOR DEGRADERS” (REGENT OF THE UNIVERSITY OF MICHIGAN, priority 2022, published 2026).

Molecules are shown by their SMILES. Like-named read-outs stand apart in the source and are kept apart here.

One assay addresses ER in MCF-7 cells (Homo sapiens (Human), UniProt P03372). The assay can be described thus: In-cell Western (ICW) ER degradation assay in MCF-7 cells. The class given is cell-based. The settings on record: for DC50: MCF-7, ER degradation, read-out: MCF7 DC50; for MCF7 Dmax: MCF-7, maximal ER degradation.
The target in another assay is CRBN/DDB1 (Homo sapiens (Human), UniProt Q96SW2). In kind it is binding. The settings on record: His tagged CRBN+DDB1, Cy5-labeled Thalidomide probe, one hour; read-out: CRBN HTRF IC50. The protocol: The binding potency was determined using HTRF assay technology (Perkin Elmer). Compounds were serially diluted in DMSO and […] volume was transferred to white 384-well plate.
Chain of CRBN/DDB1 (Q96SW2 whole entry, species assumed): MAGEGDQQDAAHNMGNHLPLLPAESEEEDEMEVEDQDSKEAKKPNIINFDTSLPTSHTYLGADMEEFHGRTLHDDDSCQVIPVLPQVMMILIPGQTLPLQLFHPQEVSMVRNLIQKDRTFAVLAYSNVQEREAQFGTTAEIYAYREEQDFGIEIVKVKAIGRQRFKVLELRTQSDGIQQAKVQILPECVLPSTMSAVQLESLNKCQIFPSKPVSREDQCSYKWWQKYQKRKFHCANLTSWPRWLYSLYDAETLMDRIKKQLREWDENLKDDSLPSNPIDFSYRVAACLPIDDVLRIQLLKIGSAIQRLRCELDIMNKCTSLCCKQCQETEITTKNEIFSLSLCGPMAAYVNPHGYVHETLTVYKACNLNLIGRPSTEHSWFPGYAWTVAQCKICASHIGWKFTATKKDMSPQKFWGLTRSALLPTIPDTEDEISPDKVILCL
Chain of CRBN/DDB1 (Q16531 whole entry partner, species assumed): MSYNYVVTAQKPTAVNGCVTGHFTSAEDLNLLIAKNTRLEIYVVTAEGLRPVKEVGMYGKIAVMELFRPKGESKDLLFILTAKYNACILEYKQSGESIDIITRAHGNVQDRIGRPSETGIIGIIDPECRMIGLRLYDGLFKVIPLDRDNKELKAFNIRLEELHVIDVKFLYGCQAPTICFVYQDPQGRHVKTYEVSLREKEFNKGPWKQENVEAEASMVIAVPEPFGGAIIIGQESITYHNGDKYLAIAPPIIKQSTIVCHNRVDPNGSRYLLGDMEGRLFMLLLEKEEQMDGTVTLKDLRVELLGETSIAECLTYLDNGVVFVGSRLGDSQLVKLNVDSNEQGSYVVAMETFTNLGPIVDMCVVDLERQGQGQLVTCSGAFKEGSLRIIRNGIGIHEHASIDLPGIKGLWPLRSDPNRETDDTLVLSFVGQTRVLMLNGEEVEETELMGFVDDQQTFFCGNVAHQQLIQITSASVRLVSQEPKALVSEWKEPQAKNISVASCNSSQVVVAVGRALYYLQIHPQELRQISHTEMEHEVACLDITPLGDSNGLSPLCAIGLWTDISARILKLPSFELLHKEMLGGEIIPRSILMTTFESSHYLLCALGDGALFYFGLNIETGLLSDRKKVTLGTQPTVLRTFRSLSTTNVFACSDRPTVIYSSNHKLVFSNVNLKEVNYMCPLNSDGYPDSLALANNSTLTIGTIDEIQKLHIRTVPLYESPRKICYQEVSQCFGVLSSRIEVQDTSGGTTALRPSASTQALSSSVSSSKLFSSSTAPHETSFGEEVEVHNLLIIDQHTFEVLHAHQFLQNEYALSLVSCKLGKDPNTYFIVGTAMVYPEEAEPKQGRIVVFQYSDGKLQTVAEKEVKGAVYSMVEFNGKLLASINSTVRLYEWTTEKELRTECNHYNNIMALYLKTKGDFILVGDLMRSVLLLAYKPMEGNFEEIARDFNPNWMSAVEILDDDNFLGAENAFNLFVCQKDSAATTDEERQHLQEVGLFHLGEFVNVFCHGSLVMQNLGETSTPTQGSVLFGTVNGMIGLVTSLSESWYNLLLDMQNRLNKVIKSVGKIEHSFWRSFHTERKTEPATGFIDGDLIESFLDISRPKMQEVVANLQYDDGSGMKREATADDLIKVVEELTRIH
(In general: Time-resolved FRET reads energy transfer from a long-lived donor to a nearby acceptor.)

A further assay concerns the target ER in T47D cells (Homo sapiens (Human), UniProt P03372). Put plainly: In-cell Western (ICW) ER degradation assay in T47D cells. The class given is cell-based. The settings on record: for DC50: ER degradation.
[1] abbreviates: MCF7, read-out: MCF7 Dmax, MCF-7, maximal ER degradation, 16 hrs treatment.
Setting [2] is: read-out: T47D Dmax, T47D, maximal ER degradation, 16 hrs treatment.
Setting [3] is: MCF7, MCF-7, maximal ER degradation, 16 hrs treatment, read-out: MCF7 Dmax.
[4] abbreviates: maximal ER degradation, 16 hrs treatment, read-out: T47D Dmax.

Chain of ER in T47D cells (P03372 whole entry): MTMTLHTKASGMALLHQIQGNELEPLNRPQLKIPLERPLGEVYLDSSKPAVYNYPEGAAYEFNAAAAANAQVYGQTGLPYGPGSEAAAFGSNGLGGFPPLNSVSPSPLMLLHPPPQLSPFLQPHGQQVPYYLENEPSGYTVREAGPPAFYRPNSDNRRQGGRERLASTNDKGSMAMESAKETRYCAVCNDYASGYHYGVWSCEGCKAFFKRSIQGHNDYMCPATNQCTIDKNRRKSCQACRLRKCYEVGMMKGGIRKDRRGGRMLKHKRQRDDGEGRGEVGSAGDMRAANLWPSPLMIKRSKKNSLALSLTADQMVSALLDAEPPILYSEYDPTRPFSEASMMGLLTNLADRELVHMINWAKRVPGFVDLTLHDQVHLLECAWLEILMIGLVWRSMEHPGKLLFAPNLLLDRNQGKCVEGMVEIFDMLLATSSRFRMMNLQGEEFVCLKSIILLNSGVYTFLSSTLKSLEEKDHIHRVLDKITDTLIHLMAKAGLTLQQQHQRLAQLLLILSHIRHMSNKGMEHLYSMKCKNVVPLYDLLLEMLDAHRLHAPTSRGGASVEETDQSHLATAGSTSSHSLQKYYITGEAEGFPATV
Chain of ER in MCF-7 cells (P03372 whole entry): as above

What is called Dmax is the greatest extent of degradation seen. Broadly, the DC50 is the concentration giving 50% degradation. By IC50 is commonly meant the point on the concentration scale where inhibition reaches its midpoint. For the compound `COc1cc(N2CCC3(CC2)CC(CN2CCC4(CC2)COc2c4ccc4c2CN([C@H]2CCC(=O)NC2=O)C4=O)CO3)ccc1[C@@H]1c2ccc(O)cc2CC[C@@H]1c1ccccc1` (stereo partly drawn) [Compound A55, (3S)-3-(1′-((8-(4-((1S,2S)-6-hydroxy-2-phenyl-1,2,3,4-tetrahydronaphthalen-1-yl)-3-methoxyphenyl)-1-oxa-8-azaspiro[4.5]decan-3-yl)meth-yl)-6-oxo-6,8-dihydro-2H,7H-spiro[furo[2,3-e]isoindole-3,4′-piperidin]-7-yl)piperidine-2,6-dione], the Dmax was in the range of 25 to 50% at ER in MCF-7 cells (setting [1]) and 50 to 75% on ER in T47D cells (setting [2]). Besides, the DC50 lay within 10 to 100 nM on ER in MCF-7 cells (16 hrs treatment) and 1 to 10 nM on ER in T47D cells (16 hrs treatment). Moreover, the IC50 on CRBN/DDB1 was below 50 nM.
For `O=C1CC[C@H](N2Cc3cc4c(cc3C2=O)OC[C@H]2CN(C[C@H]3COC5(CCN(c6ccc([C@H]7c8ccc(O)cc8CC[C@H]7c7ccccc7)cc6)CC5)C3)CCN42)C(=O)N1` (single isomer, unassigned) [Compound A19], the Dmax at ER in MCF-7 cells (setting [3]) and at ER in T47D cells (setting [4]) was 50 to 75% in each case. The DC50 at ER in MCF-7 cells (16 hrs treatment) and on ER in T47D cells (16 hrs treatment) was 1 to 10 nM each time. The IC50 on CRBN/DDB1 is 50 to 500 nM.
As to `O=C1CC[C@@H](Nc2ccc(C3CCN(C[C@@H]4COC5(CCN(c6ccc([C@H]7c8ccc(O)cc8CC[C@H]7c7ccccc7)cc6)CC5)C4)CC3)c(F)c2)C(=O)N1` (single isomer, unassigned) [Compound A60], the Dmax on ER in MCF-7 cells (setting [3]) is 25 to 50%; at ER in T47D cells (setting [4]), below 25%. Moreover, the DC50 at ER in MCF-7 cells (16 hrs treatment) and on ER in T47D cells (16 hrs treatment) was above 100 nM in each case. Moreover, the IC50 on CRBN/DDB1 lay within 50 to 500 nM.
Turning to `COc1cc(N2CCC3(CC2)CC(CN2CCN4c5ccc6c(c5OC[C@H]4C2)CN([C@H]2CCC(=O)NC2=O)C6=O)CO3)ccc1[C@@H]1c2ccc(O)cc2CC[C@@H]1c1ccccc1` (stereo partly drawn) [Compound A53, (3S)-3-((5aR)-7-((8-(4-((1S, 2S)-6-hydroxy-2-phenyl-1,2,3,4-tetrahydronaphthalen-1-yl)-3-methoxyphenyl)-1-oxa-8-azaspiro[4.5]decan-3-yl)-methyl)-1-oxo-1,3,5,5a,6,7,8,9-octahydro-2H-pyrazino[1′,2′: 4,5][1,4]oxazino[2,3-e]isoindol-2-yl)piperidine-2,6-dione], the values for the Dmax on ER in MCF-7 cells (setting [3]) and at ER in T47D cells (setting [4]) were 25 to 50% and 50 to 75%, respectively. Further, the DC50 lay in the range of 10 to 100 nM on ER in MCF-7 cells (16 hrs treatment) and 1 to 10 nM on ER in T47D cells (16 hrs treatment). Further, at CRBN/DDB1, the IC50 is below 50 nM.
As to `O=C1CC[C@H](NC(=O)c2ccc3c(n2)OC[C@H]2CN(C[C@H]4COC5(CCN(c6ccc([C@@H]7c8ccc(O)cc8CC[C@@H]7c7ccccc7)cc6)CC5)C4)CCN32)C(=O)N1` (single isomer, unassigned) [Compound A13], the Dmax at ER in MCF-7 cells (setting [3]) and on ER in T47D cells (setting [4]) was 50 to 75% each time. In addition, the DC50 at ER in MCF-7 cells (16 hrs treatment) and at ER in T47D cells (16 hrs treatment) was 1 to 10 nM each time. At CRBN/DDB1, the IC50 was in the range of 500 to 5000 nM.
For the compound `O=C1CCC(Nc2ccc(C34CCN(C[C@H]5COC6(CCN(c7ccc([C@@H]8c9ccc(O)cc9CC[C@@H]8c8ccccc8)cc7)CC6)C5)CC3C4(F)F)cc2)C(=O)N1` (stereo partly drawn) [Compound A44, (3S)-3-((4-(7,7-difluoro-3-(((S)-8-(4-((1R,2S)-6-hydroxy-2-phenyl-1,2,3,4-tetrahydro-naphthalen-1-yl)phenyl)-1-oxa-8-azaspiro[4.5]decan-3-yl)-methyl)-3-azabicyclo[4.1.0]heptan-6-yl)phenyl)amino)-piperidine-2,6-dione], the Dmax on ER in MCF-7 cells (setting [1]) and on ER in T47D cells (setting [2]) was below 25% each time. For the same compound, the DC50 at ER in MCF-7 cells (16 hrs treatment) and on ER in T47D cells (16 hrs treatment) was above 100 nM each time. The IC50 on CRBN/DDB1 was above 5000 nM.
With `COc1cc(N2CC3(CC(CN4CCN5c6ccc7c(c6OC[C@H]5C4)CN([C@H]4CCC(=O)NC4=O)C7=O)CO3)C2)ccc1[C@H]1c2ccc(O)cc2CC[C@H]1c1ccccc1` (single isomer, unassigned) [Compound A47], the Dmax on ER in MCF-7 cells (setting [3]) was 50 to 75%; at ER in T47D cells (setting [4]), 25 to 50%. For the same compound, the DC50 at ER in MCF-7 cells (16 hrs treatment) lay within 10 to 100 nM; on ER in T47D cells (16 hrs treatment), 1 to 10 nM. Moreover, on CRBN/DDB1, the IC50 was in the range of 50 to 500 nM.
`COc1cc(N2CCC(CN3CC[C@@]4(c5ccc(N[C@@H]6CCC(=O)NC6=O)cc5)C(C3)C4(F)F)CC2)ccc1[C@@H]1c2ccc(O)cc2CC[C@@H]1c1ccccc1` (mixture of isomers) [Compound A88, (3R)-3-((4-((1R)-7,7-difluoro-3-((1-(4-((1SR,2SR)-6-hydroxy-2-phenyl-1,2,3,4-tetra-hydronaphthalen-1-yl)-3-meth-oxyphenyl)piperidin-4-yl)meth-yl)-3-azabicyclo[4.1.0]heptan-6-yl)phenyl)amino)piperidine-2,6-dione]: the Dmax on ER in MCF-7 cells (setting [1]) was in the range of 50 to 75%; on ER in T47D cells (setting [2]), 25 to 50%. For the same compound, the DC50 on ER in MCF-7 cells (16 hrs treatment) is 1 to 10 nM; on ER in T47D cells (16 hrs treatment) it was below 1 nM. For the same compound, the IC50 at CRBN/DDB1 is above 5000 nM.
For `COc1cc(N2CCC(CN3CC[C@]4(c5ccc(N[C@@H]6CCC(=O)NC6=O)cc5)[C@H](C3)C4(F)F)CC2)ccc1[C@@H]1c2ccc(O)cc2CC[C@@H]1c1ccccc1` [Compound A89, (R)-3-((4-((1R,6R)-7,7-difluoro-3-((1-(4-((1S,2S)-6-hydroxy-2-phenyl-1,2,3,4-tetra-hydronaphthalen-1-yl)-3-meth-oxyphenyl)piperidin-4-yl)meth-yl)-3-azabicyclo[4.1.0]heptan-6-yl)phenyl)amino)-piperidine-2,6-dione], the Dmax on ER in MCF-7 cells (setting [1]) and on ER in T47D cells (setting [2]) was 25 to 50% in each case. The DC50 on ER in MCF-7 cells (16 hrs treatment) and at ER in T47D cells (16 hrs treatment) was below 1 nM in each case. For the same compound, the IC50 at CRBN/DDB1 was above 5000 nM.
`O=C1CC[C@H](NC(=O)c2ccc3c(n2)OC[C@H]2CN(C[C@@H]4COC5(CCN(c6ccc([C@@H]7c8ccc(O)cc8CC[C@@H]7c7ccccc7)cc6)CC5)C4)CCN32)C(=O)N1` (single isomer, unassigned) [Compound A14]: the Dmax on ER in MCF-7 cells (setting [3]) and at ER in T47D cells (setting [4]) was 50 to 75% throughout. The DC50 on ER in MCF-7 cells (16 hrs treatment) and at ER in T47D cells (16 hrs treatment) was below 1 nM each time. Besides, the IC50 on CRBN/DDB1 lay in the range of 500 to 5000 nM.
Consider `O=C1CC[C@H](N2Cc3c(ccc4c3OC[C@H]3CN(CC5COC6(C5)CN(c5ccc([C@@H]7c8ccc(O)cc8CC[C@@H]7c7ccccc7)cc5)C6)CCN43)C2=O)C(=O)N1` (single isomer, unassigned) [Compound A40], for which, at ER in MCF-7 cells (16 hrs treatment), the DC50 fell in the range of 10 to 100 nM and the “MCF7 Dmax” value is on record as “C (“C”: 25-50%)”. At CRBN/DDB1, the IC50 is below 50 nM. Moreover, the DC50 at ER in T47D cells (16 hrs treatment) was in the range of 10 to 100 nM. Also, the “T47D Dmax” value on ER in T47D cells (maximal ER degradation, 16 hrs treatment) was “C (“C”: 25-50%)”.
As to `O=C1CC[C@H](NC(=O)c2ccc3c(n2)OC[C@H]2CN(C[C@H]4COC5(CCN(c6ccc([C@H]7c8ccc(O)cc8CC[C@H]7c7ccccc7)cc6)CC5)C4)CCN32)C(=O)N1` (single isomer, unassigned) [Compound A15], the Dmax at ER in MCF-7 cells (setting [3]) and on ER in T47D cells (setting [4]) was 25 to 50% throughout. In addition, the DC50 on ER in MCF-7 cells (16 hrs treatment) and on ER in T47D cells (16 hrs treatment) was 10 to 100 nM throughout. Moreover, the IC50 on CRBN/DDB1 fell in the range of 500 to 5000 nM.
For the compound `O=C1CC[C@@H](Nc2ccc([C@@]34CCN(CC5CC6(CCN(c7ccc([C@@H]8c9ccc(O)cc9CC[C@@H]8c8ccccc8)cc7)CC6)C5)C[C@@H]3C4(F)F)cc2)C(=O)N1` [Compound A67, (R)-3-((4-((1R,6R)-7,7-difluoro-3-((7-(4-((1R,2S)-6-hydroxy-2-phenyl-1,2,3,4-tetrahydronaphthalen-1-yl)-phenyl)-7-azaspiro[3.5]nonan-2-yl)methyl)-3-azabicyclo [4.1.0]heptan-6-yl)phenyl)-amino)piperidine-2,6-dione], the Dmax on ER in MCF-7 cells (setting [1]) and on ER in T47D cells (setting [2]) was 50 to 75% each time. Besides, the DC50 at ER in MCF-7 cells (16 hrs treatment) and at ER in T47D cells (16 hrs treatment) was 1 to 10 nM in each case. At CRBN/DDB1, the IC50 is above 5000 nM.
On to `O=C1CC[C@H](N2Cc3cc4c(cc3C2=O)OC[C@@H]2CN(CC3CCC5(CC3)CN(c3ccc([C@@H]6c7ccc(O)cc7CC[C@@H]6c6ccccc6)cn3)C5)CCN42)C(=O)N1` [Compound A124, (S)-3-((S)-3-((2-(5-((1S,2S)-6-hydroxy-2-phenyl-1,2,3,4-tetrahydronaphthalen-1-yl)pyridin-2-yl)-2-azaspiro[3.5]nonan-7-yl)methyl)-8-oxo-1,2,3,4,4a,5,8,10-octahydro-9H-pyrazino[1′,2′: 4,5][1,4]oxazino[2,3-f]isoindol-9-yl)piperidine-2,6-dione], for which the DC50 on ER in MCF-7 cells (16 hrs treatment) and at ER in T47D cells (16 hrs treatment) was 10 to 100 nM throughout. The “MCF7 Dmax” value at ER in MCF-7 cells (16 hrs treatment) is “B (“B”: >50 and <75%)”. In addition, on CRBN/DDB1, the half-inhibitory concentration (IC50) lay in the range of 500 to 5000 nM. Moreover, the Dmax on ER in T47D cells (setting [4]) was 50 to 75%.
Regarding `COc1cc(N2CCC3(CC2)CC(CN2CCN4c5ccc(C(=O)N[C@H]6CCC(=O)NC6=O)nc5OCC4C2)C3)ccc1[C@@H]1c2ccc(O)cc2CC[C@@H]1c1ccccc1` (stereo in doubt) [Compound A108, (S)-N-((S)-2,6-dioxopiperidin-3-yl)-3-((7-(4-((1S,2S)-6-hydroxy-2-phenyl-1,2,3,4-tetra-hydronaphthalen-1-yl)-3-meth-oxyphenyl)-7-azaspiro[3.5]nonan-2-yl)methyl)-1,2,3,4,4a, 5-hexahydropyrazino[1,2-d] pyrido[2,3-b][1,4]oxazine-8-carboxamide], the Dmax on ER in MCF-7 cells (setting [3]) and at ER in T47D cells (setting [4]) was 50 to 75% each time. The DC50 on ER in MCF-7 cells (16 hrs treatment) and on ER in T47D cells (16 hrs treatment) was below 1 nM in each case. The IC50 on CRBN/DDB1 lay in the range of 500 to 5000 nM.
